Experimental data from patent publication US8546575B2, “NIP thiazole derivatives as inhibitors of 11-beta-hydroxysteroid dehydroge-nase-1” (Merck Patent GmbH, priority 2008, dated 2013).

Tests used:
human 11-β-HSD-1 = target: T1, human 11-β-HSD-1 (Homo sapiens, UniProt P28845); assay: Inhibition of 11-β-HSD-1 enzyme assay (HTRF Cortisol), human recombinant enzyme; type: biochemical; conditions: for IC50: human recombinant enzyme from E. coli, cortisone/NADPH 200 nM/200 μM
T1 construct: made in house; host or cells: E. coli
Experimental: (§1) Human recombinant 11-beta-hydroxysteroid dehydrogenase type 1 (11-β-HSD-1) enzyme was expressed in E. coli. Rat and mice liver microsome fractions were purchased from TEBU.
(§2) The 11-β-HSD-1 enzyme assay was carried out in 96 well microtiter plates in a total volume of 100 μl containing 30 mM Hepes buffer, pH 7.4 with 1 mM EDTA, substrate mixture cortisone/NADPH (200 nM/200 μM), G-6-P (1 mM) and inhibitors in serial dilutions. Reactions were initiated by addition of 10 μl 11-β-HSD-1 (3 μg) from E. coli, either as microsome fractions from rat and mice liver (2.5 μg). Following mixing, the plates were shaken for 150 minutes at 37° C. The reactions were terminated with 10 μl Acid-18beta Glycyrrhetinic stop solution. Determinations of Cortisol levels in 11-β-HSD-1 preparations were monitored by HTRF (HTRF Cortisol assay from Cis bio international).
(§3) Activity is expressed in % of control or concentration to inhibit 50% of the enzyme activity (IC50) (table 6).

mouse 11-β-HSD-1 = target: T2, mouse 11-β-HSD-1 (Mus musculus, UniProt P50172); assay: Inhibition of 11-β-HSD-1 enzyme assay (HTRF Cortisol), mice liver microsome fractions; type: biochemical; conditions: for remaining activity at 1 µM: read-out: Inhibition of mouse 11-β-HSD-1 % of control at 1 μM
T2 construct: either as microsome fractions from rat and mice liver (2.5 μg); tissue TEBU; host or cells: mouse liver microsome fractions
Experimental: as §1, §2, §3

normal patients = conditions: cited from earlier work
humans = conditions: cited from earlier work

T1 sequence (P28845 whole entry): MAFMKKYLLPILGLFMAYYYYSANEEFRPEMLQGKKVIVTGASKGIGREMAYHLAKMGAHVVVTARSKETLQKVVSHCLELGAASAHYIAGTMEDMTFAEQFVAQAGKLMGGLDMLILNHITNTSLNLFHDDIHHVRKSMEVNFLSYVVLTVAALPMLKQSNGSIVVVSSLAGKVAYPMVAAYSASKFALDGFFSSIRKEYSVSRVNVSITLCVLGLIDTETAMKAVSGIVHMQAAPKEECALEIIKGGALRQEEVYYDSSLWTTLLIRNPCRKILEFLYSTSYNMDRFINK
T2 sequence (P50172 whole entry): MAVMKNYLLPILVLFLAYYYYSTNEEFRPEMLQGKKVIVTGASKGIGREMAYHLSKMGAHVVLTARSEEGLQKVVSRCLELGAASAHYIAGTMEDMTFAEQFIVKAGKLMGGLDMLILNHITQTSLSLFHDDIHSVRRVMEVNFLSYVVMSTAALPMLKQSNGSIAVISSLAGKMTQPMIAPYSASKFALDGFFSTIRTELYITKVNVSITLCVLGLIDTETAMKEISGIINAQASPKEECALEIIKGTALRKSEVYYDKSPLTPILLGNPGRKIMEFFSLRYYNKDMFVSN

Structure (SMILES): O=C(c1csc(C2CCNCC2)n1)N(C1CCCCC1)C1CC1 [Compound 1.1, 2-Piperidin-4-yl-thiazole-4-carboxylic acid cyclohexyl-cyclopropyl-amide]
- IC50 (human 11-β-HSD-1): 1200 nM
- IC50 (mouse 11-β-HSD-1): 290 nM

Structure (SMILES): O=C(c1csc(C2CCNCC2)n1)N1CCCC2CCCCC21 (stereo not shown) [Compound 1.2, (Octahydro-quinolin-1-yl)-(2-piperidin-4-yl-thiazol-4-yl)-methanone]
- remaining activity at 1 µM (human 11-β-HSD-1; at 1 μM, human recombinant enzyme, read-out: Inhibition of human 11-β-HSD-1 % of control at 1 μM): 27%

Structure (SMILES): CC(C)(C)CC(=O)N1CCC(c2nc(C(=O)N3CCCC4CCCCC43)cs2)CC1 (stereo not shown) [Compound 2.1, 3,3-Dimethyl-1-{4-[4-(octahydro-quinoline-1-carbonyl)-thiazol-2-yl]-piperidin-1-yl}-butan-1-one]
- IC50 (human 11-β-HSD-1): 92 nM
- remaining activity at 1 µM (mouse 11-β-HSD-1): 51%

Structure (SMILES): O=C(CCC1CCCC1)N1CCC(c2nc(C(=O)N(C3CCCCC3)C3CC3)cs2)CC1 [Compound 2.7, 2-[1-(3-Cyclopentyl-propionyl)-piperidin-4-yl]-thiazole-4-carboxylic acid cyclohexyl-cyclopropyl-amide]
- IC50 (human 11-β-HSD-1): 420 nM
- IC50 (mouse 11-β-HSD-1): 630 nM

Structure (SMILES): O=C(C1CCCCC1)N1CCC(c2nc(C(=O)N3CCCC4CCCCC43)cs2)CC1 (stereo not shown) [Compound 2.17, [2-(1-Cyclohexanecarbonyl-piperidin-4-yl)-thiazol-4-yl]-(octahydro-quinolin-1-yl)-methanone]
- IC50 (human 11-β-HSD-1): 200 nM
- IC50 (mouse 11-β-HSD-1): 340 nM

Structure (SMILES): O=C(C1CCCC1)N1CCC(c2nc(C(=O)N3CCCC4CCCCC43)cs2)CC1 (stereo not shown) [Compound 2.18, [2-(1-Cyclopentanecarbonyl-piperidin-4-yl)-thiazol-4-yl]-(octahydro-quinolin-1-yl)-methanone]
- IC50 (human 11-β-HSD-1): 130 nM
- IC50 (mouse 11-β-HSD-1): 490 nM

Structure (SMILES): CCC(C)NC(=O)N1CCC(c2nc(C(=O)N3CCCC4CCCCC43)cs2)CC1 (stereo not shown) [Compound 3.1, 4-[4-(Octahydro-quinoline-1-carbonyl)-thiazol-2-yl]-piperidine-1-carboxylic acid sec-butylamide]
- IC50 (human 11-β-HSD-1): 270 nM
- IC50 (mouse 11-β-HSD-1): 470 nM

Structure (SMILES): CCCCCNC(=O)N1CCC(c2nc(C(=O)N3CCCC4CCCCC43)cs2)CC1 (stereo not shown) [Compound 3.7, 4-[4-(Octahydro-quinoline-1-carbonyl)-thiazol-2-yl]-piperidine-1-carboxylic acid pentylamide]
- IC50 (human 11-β-HSD-1): 340 nM
- IC50 (mouse 11-β-HSD-1): 59 nM

Structure (SMILES): COc1ccc(CNC(=O)N2CCC(c3nc(C(=O)N4CCCC5CCCCC54)cs3)CC2)cc1 (stereo not shown) [Compound 3.22, 4-[4-(Octahydro-quinoline-1-carbonyl)-thiazol-2-yl]-piperidine-1-carboxylic acid 4-methoxy-benzylamide]
- IC50 (human 11-β-HSD-1): 53 nM
- IC50 (mouse 11-β-HSD-1): 500 nM

Structure (SMILES): O=C(c1csc(C2CCN(S(=O)(=O)C(F)(F)F)CC2)n1)N1CCCC2CCCCC21 (stereo not shown) [Compound 4.1, (Octahydro-quinolin-1-yl)-[2-(1-trifluoromethanesulfonyl-piperidin-4-yl)-thiazol-4-yl]-methanone]
- IC50 (human 11-β-HSD-1): 32 nM
- IC50 (mouse 11-β-HSD-1): 330 nM

Structure (SMILES): CCCCS(=O)(=O)N1CCC(c2nc(C(=O)N3CCCC4CCCCC43)cs2)CC1 (stereo not shown) [Compound 4.2, {2-[1-(Butane-1-sulfonyl)-piperidin-4-yl]-thiazol-4-yl}-(octahydro-quinolin-1-yl)-methanone]
- IC50 (human 11-β-HSD-1): 93 nM
- IC50 (mouse 11-β-HSD-1): 210 nM

Structure (SMILES): O=C(c1csc(C2CCN(S(=O)(=O)c3cccs3)CC2)n1)N(C1CCCCC1)C1CC1 [Compound 4.11, 2-[1-(Thiophene-2-sulfonyl)-piperidin-4-yl]-thiazole-4-carboxylic acid cyclohexyl-cyclopropyl-amide]
- IC50 (human 11-β-HSD-1): 720 nM

Structure (SMILES): O=C(c1csc(C2CCN(S(=O)(=O)CCc3ccncc3)CC2)n1)N(C1CCCCC1)C1CC1 [Compound 4.18, 2-[1-(2-Pyridin-4-yl-ethanesulfonyl)-piperidin-4-yl]-thiazole-4-carboxylic acid cyclohexyl-cyclopropyl-amide]
- IC50 (human 11-β-HSD-1): 1000 nM
- remaining activity at 1 µM (mouse 11-β-HSD-1): 49%

Structure (SMILES): COc1ccc(S(=O)(=O)N2CCC(c3nc(C(=O)N(C4CCCCC4)C4CC4)cs3)CC2)cc1 [Compound 4.20, 2-[1-(4-Methoxy-benzenesulfonyl)-piperidin-4-yl]-thiazole-4-carboxylic acid cyclohexyl-cyclopropyl-amide]
- IC50 (human 11-β-HSD-1): 280 nM
- IC50 (mouse 11-β-HSD-1): 1000 nM

Structure (SMILES): CC1(C)[C@@H](OC(=O)CCC(=O)O)CC[C@]2(C)[C@H]3C(=O)C=C4[C@@H]5C[C@@](C)(C(=O)O)CC[C@]5(C)CC[C@@]4(C)[C@]3(C)CC[C@@H]12 [carbenoxolone]
- reduction of the intraocular pressure (normal patients): 20%
- hepatic insulin sensitivity (humans): improved hepatic insulin sensitivity
